One assay concerns breast cancer cell line MX-1. Nature of the assay: MX-1 cell line proliferation assay, Method B. The format is cell-based. Conditions: Homo sapiens, MX1; MX-1 cells, 384-well, 72 hours, Cell Titer Glo; read-out: Cellular proliferation: EC50 Method B. The method, then:
The impact of compounds of the Examples on cancer cell proliferation was determined using the breast cancer cell line MX-1 (ATCC) in a 3-day proliferation assay and the data are reported in Table 1.
MX-1 cells were maintained in RPMI 1640 medium (Sigma) supplemented with 10% FBS at 37° C. and an atmosphere of 5% CO2. For compound testing, MX-1 cells were plated in 384-well white with clear, flat bottom plates at a density of 750 cells/well in 25 μL of culture media and incubated at 370 overnight to allow cell adhesion and spreading. Ten point compound dilution series were prepared in DMSO via a 3-fold serial dilution from either 10 μM or 1 μM stock and added directly to the appropriate wells of the MX-1 cell plate by an ECHO liquid handler (Labcyte). The final compound concentrations in the wells were 10, 3.25, 1, 0.25, 0.124, 0.040, 0.0124, 0.0031, 0.0015 and 0.0005 μM or 1, 0.33, 0.1, 0.025, 0.0124, 0.004, 0.0012, 0.0003, 0.00015, 0.00005 μM, depending on the concentration of the compound stock solution.
Luminescence readings from the Cell Titer Glo assay were normalized to the DMSO treated cells and analyzed using Accelrys Assay Explorer 3.3 software with sigmoidal curve fitting to obtain EC50s. The minimum significant ratio (MSR) was determined to evaluate assay reproducibility (Eastwood et al., (2006) J Biomol Screen, 11: 253-261). The overall MSR was determined to be 3.3 and a moving MSR (last six run MSR overtime) has averaged 2.1.
For orientation: Cellular ATP, detected with luciferase, serves as a proxy for viable cell number.
Take `Cc1noc(C2CCCN2Cc2cc3c(-c4cc(S(C)(=O)=O)ccc4Oc4ccc(F)cc4F)cn(C)c(=O)c3[nH]2)n1` (stereo not shown) [Example 131, 4-[2-(2,4-difluorophenoxy)-5-(methylsulfonyl)phenyl]-6-methyl-2-{[2-(3-methyl-1,2,4-oxadiazol-5-yl)pyrrolidin-1-yl]methyl}-1,6-dihydro-7H-pyrrolo[2,3-c]pyridin-7-one]: the EC50 came out at 0.827 µM.
With `Cn1cc(-c2cc(S(C)(=O)=O)ccc2Oc2ccc(F)cc2F)c2cc(CN3CCN(c4ccccn4)CC3)[nH]c2c1=O` [Example 132, 4-[2-(2,4-difluorophenoxy)-5-(methylsulfonyl)phenyl]-6-methyl-2-{[4-(pyridin-2-yl)piperazin-1-yl]methyl}-1,6-dihydro-7H-pyrrolo[2,3-c]pyridin-7-one], the EC50 worked out at 0.653 µM.
For the compound `CCNC(=O)/C=C/c1cc2c(-c3cc(S(=O)(=O)CC)ccc3Oc3c(C)cccc3C)cn(C)c(=O)c2[nH]1` [Example 134, (2E)-3-{4-[2-(2,6-dimethylphenoxy)-5-(ethylsulfonyl)phenyl]-6-methyl-7-oxo-6,7-dihydro-1H-pyrrolo[2,3-c]pyridin-2-yl}-N-ethylprop-2-enamide], the EC50 is 0.238 µM.
For `Cc1cccc(C)c1Oc1ccc(S(C)(=O)=O)cc1-c1cn(C)c(=O)c2[nH]c(-c3nc(C4CCCCC4)no3)cc12` [Example 136, 2-(3-cyclohexyl-1,2,4-oxadiazol-5-yl)-4-[2-(2,6-dimethylphenoxy)-5-(methylsulfonyl)phenyl]-6-methyl-1,6-dihydro-7H-pyrrolo[2,3-c]pyridin-7-one], the EC50 is greater than 1 µM.
In the case of `Cc1cccc(C)c1Oc1ccc(S(C)(=O)=O)cc1-c1cn(C)c(=O)c2[nH]c(-c3nc(-c4ccccc4)no3)cc12` [Example 137, 4-[2-(2,6-dimethylphenoxy)-5-(methylsulfonyl)phenyl]-6-methyl-2-(3-phenyl-1,2,4-oxadiazol-5-yl)-1,6-dihydro-7H-pyrrolo[2,3-c]pyridin-7-one], the EC50 was greater than 1 µM.
As to `Cc1cccc(C)c1Oc1ccc(S(C)(=O)=O)cc1-c1cn(C)c(=O)c2[nH]c(-c3nc(-c4cccnc4)no3)cc12` [Example 138, 4-[2-(2,6-dimethylphenoxy)-5-(methylsulfonyl)phenyl]-6-methyl-2-[3-(pyridin-3-yl)-1,2,4-oxadiazol-5-yl]-1,6-dihydro-7H-pyrrolo[2,3-c]pyridin-7-one], the EC50 came to 0.465 µM.
As for `Cc1cccc(C)c1Oc1ccc(S(C)(=O)=O)cc1-c1cn(C)c(=O)c2[nH]c(-c3nc(-c4ccccn4)no3)cc12` [Example 139, 4-[2-(2,6-dimethylphenoxy)-5-(methylsulfonyl)phenyl]-6-methyl-2-[3-(pyridin-2-yl)-1,2,4-oxadiazol-5-yl]-1,6-dihydro-7H-pyrrolo[2,3-c]pyridin-7-one], the EC50 amounted to 0.532 µM.

Another assay deals with breast cancer cell line MX-1. Nature of the assay: MX-1 cell line proliferation assay, Method A. Conditions: Homo sapiens, MX1; MX-1 cells, 96-well, 72 hours, Cell Titer Glo; read-out: Cellular proliferation: EC50 Method A. It counts as cell-based. In a few lines: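 MX-1 breast cancer cells (5000/well) were attached overnight in RPMI 1640 with 10% FBS, then exposed for 3 days to compound at 0.0001–3 μM final. Cell Titer Glo luminescence was normalized to DMSO controls, and EC50s were obtained by sigmoidal fitting.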
With `Cn1cc(-c2cc(S(C)(=O)=O)ccc2N[C@H]2CC[C@H](NCc3ccc(F)cc3F)CC2)c2cc[nH]c2c1=O` [Example 109, 4-[2-({trans-4-[(2,4-difluorobenzyl)amino]cyclohexyl}amino)-5-(methylsulfonyl)phenyl]-6-methyl-1,6-dihydro-7H-pyrrolo[2,3-c]pyridin-7-one], the EC50 worked out at 0.0181 µM.
On to `Cn1cc(-c2cc(S(C)(=O)=O)ccc2N[C@H]2CC[C@H](NCc3ccc4ccccc4c3)CC2)c2cc[nH]c2c1=O` [Example 110, 6-methyl-4-[5-(methylsulfonyl)-2-({trans-4-[(naphthalen-2-ylmethyl)amino]cyclohexyl}amino)phenyl]-1,6-dihydro-7H-pyrrolo[2,3-c]pyridin-7-one], for which the EC50 came to 0.0104 µM.
As for `COCCN[C@H]1CC[C@H](Nc2ccc(S(C)(=O)=O)cc2-c2cn(C)c(=O)c3[nH]ccc23)CC1` [Example 111, 4-[2-({trans-4-[(2-methoxyethyl)amino]cyclohexyl}amino)-5-(methylsulfonyl)phenyl]-6-methyl-1,6-dihydro-7H-pyrrolo[2,3-c]pyridin-7-one], the EC50 was 0.156 µM.
Take `CSCCCN[C@H]1CC[C@H](Nc2ccc(S(C)(=O)=O)cc2-c2cn(C)c(=O)c3[nH]ccc23)CC1` [Example 112, 6-methyl-4-{2-[(trans-4-{[3-(methylsulfanyl)propyl]amino}cyclohexyl)amino]-5-(methylsulfonyl)phenyl}-1,6-dihydro-7H-pyrrolo[2,3-c]pyridin-7-one]: the EC50 is 0.142 µM.
Consider `Cn1cc(-c2cc(S(C)(=O)=O)ccc2N[C@H]2CC[C@H](NCc3ccc(Cl)cc3)CC2)c2cc[nH]c2c1=O` [Example 113, 4-[2-({trans-4-[(4-chlorobenzyl)amino]cyclohexyl}amino)-5-(methylsulfonyl)phenyl]-6-methyl-1,6-dihydro-7H-pyrrolo[2,3-c]pyridin-7-one], for which the EC50 was 0.0195 µM.
The same measure, in the same setting: with `Cn1cc(-c2cc(S(C)(=O)=O)ccc2Oc2ccc(F)cc2F)c2cc(CN3CCN(c4nccs4)CC3)[nH]c2c1=O` [Example 114, 4-[2-(2,4-difluorophenoxy)-5-(methylsulfonyl)phenyl]-6-methyl-2-{[4-(1,3-thiazol-2-yl)piperazin-1-yl]methyl}-1,6-dihydro-7H-pyrrolo[2,3-c]pyridin-7-one] the figure was 0.762 µM; with `Cn1cc(-c2cc(S(C)(=O)=O)ccc2Oc2ccc(F)cc2F)c2cc(CN3CCN(C4CC4)CC3)[nH]c2c1=O` [Example 115, 2-[(4-cyclopropylpiperazin-1-yl)methyl]-4-[2-(2,4-difluorophenoxy)-5-(methylsulfonyl)phenyl]-6-methyl-1,6-dihydro-7H-pyrrolo[2,3-c]pyridin-7-one], 0.411 µM; with `Cn1cc(-c2cc(S(C)(=O)=O)ccc2Oc2ccc(F)cc2F)c2cc(CN3CCN(C4CCOCC4)CC3)[nH]c2c1=O` [Example 116, 4-[2-(2,4-difluorophenoxy)-5-(methylsulfonyl)phenyl]-6-methyl-2-{[4-(tetrahydro-2H-pyran-4-yl)piperazin-1-yl]methyl}-1,6-dihydro-7H-pyrrolo[2,3-c]pyridin-7-one], 0.183 µM.
Turning to `CCS(=O)(=O)c1ccc(Oc2ccc(F)cc2F)c(-c2cn(C)c(=O)c3[nH]c(-c4ccnn4-c4ccccc4)cc23)c1` [Example 117, 4-[2-(2,4-difluorophenoxy)-5-(ethylsulfonyl)phenyl]-6-methyl-2-(1-phenyl-1H-pyrazol-5-yl)-1,6-dihydro-7H-pyrrolo[2,3-c]pyridin-7-one], the EC50 came to 0.249 µM.
Regarding `CCNC(=O)c1cc2c(-c3cc(S(=O)(=O)CC)ccc3Oc3c(C)cccc3NCC3CC3)cn(C)c(=O)c2[nH]1` [Example 119, 4-[2-{2-[(cyclopropylmethyl)amino]-6-methylphenoxy}-5-(ethylsulfonyl)phenyl]-N-ethyl-6-methyl-7-oxo-6,7-dihydro-1H-pyrrolo[2,3-c]pyridine-2-carboxamide], the EC50 is 1.51 µM.
For the compound `CN1CCC(N2CCN(Cc3cc4c(-c5cc(S(C)(=O)=O)ccc5Oc5ccc(F)cc5F)cn(C)c(=O)c4[nH]3)CC2)CC1` [Example 125, 4-[2-(2,4-difluorophenoxy)-5-(methylsulfonyl)phenyl]-6-methyl-2-{[4-(1-methylpiperidin-4-yl)piperazin-1-yl]methyl}-1,6-dihydro-7H-pyrrolo[2,3-c]pyridin-7-one], the EC50 amounted to 0.606 µM.
`Cn1cc(-c2cc(S(C)(=O)=O)ccc2Oc2ccc(F)cc2F)c2cc(CN3CCOCC3c3ccco3)[nH]c2c1=O` (stereo not shown) [Example 127, 4-[2-(2,4-difluorophenoxy)-5-(methylsulfonyl)phenyl]-2-{[3-(furan-2-yl)morpholin-4-yl]methyl}-6-methyl-1,6-dihydro-7H-pyrrolo[2,3-c]pyridin-7-one]: the EC50 amounted to 0.128 µM.
`Cc1cc(C)n(C2CN(Cc3cc4c(-c5cc(S(C)(=O)=O)ccc5Oc5ccc(F)cc5F)cn(C)c(=O)c4[nH]3)C2)n1` [Example 129, 4-[2-(2,4-difluorophenoxy)-5-(methylsulfonyl)phenyl]-2-{[3-(3,5-dimethyl-1H-pyrazol-1-yl)azetidin-1-yl]methyl}-6-methyl-1,6-dihydro-7H-pyrrolo[2,3-c]pyridin-7-one]: the EC50 was determined as 0.249 µM.
For the compound `Cn1cc(-c2cc(S(C)(=O)=O)ccc2Oc2ccc(F)cc2F)c2cc(CN3CCC(N4CCOCC4)CC3)[nH]c2c1=O` [Example 130, 4-[2-(2,4-difluorophenoxy)-5-(methylsulfonyl)phenyl]-6-methyl-2-{[4-(morpholin-4-yl)piperidin-1-yl]methyl}-1,6-dihydro-7H-pyrrolo[2,3-c]pyridin-7-one], the EC50 is 0.337 µM.
With `CCS(=O)(=O)Nc1ccc(Oc2ccc(F)cc2F)c(-c2cn(C)c(=O)c3[nH]c(C#CCOC)cc23)c1` [Example 163, N-{4-(2,4-difluorophenoxy)-3-[2-(3-methoxyprop-1-yn-1-yl)-6-methyl-7-oxo-6,7-dihydro-1H-pyrrolo[2,3-c]pyridin-4-yl]phenyl}ethanesulfonamide], the EC50 worked out at 0.0477 µM.
